From patent US20260234150A1, “COMPOUND FOR INHIBITING NLRP3, PREPARATION METHOD, AND USE” (DOVETREE MEDICINES UNUS, INC., priority 2023, published 2026) come the findings set out here.

Series [1] can be described thus: Liver microsome metabolic stability, rat. The format is in vitro ADME. The conditions noted are these: rat liver microsomes, 45 min incubation. The protocol: Purpose: This experiment investigates the metabolic stability of the compound in liver microsomes of different species such as humans, mice and rats, and the residual content of the test compound after incubation with liver microsomes of different species such as humans, mice and rats.
Preparation of 500 μM solution of target compound and positive control: 5 μL of each 10 mM stock solution was taken, added to 95 μL acetonitrile, and mixed for 30 s;
Preparation of 6 mM NADPH solution: 100 mM Stock aliquot liquid was diluted with Mg-Mg —K-Buffer.
2.1.1 Liver microsome solution: 18.75 μL of 20 mg/mL HLM, RLM, MLM, DLM, MOLM (final concentration: 0.5 mg/ml) were taken and placed them in each well of a 96-well plate;
2.1.2 1.5 μL of 500 μM solution of each compound was added respectively;
2.1.3 479.8 μL of phosphate buffer was taken, then added to each compound well, and mixed at 1000 rpm in an oscillating mixer for 10 s.
30 μL of the above samples were taken and aliquoted to a new 96-well plates respectively (including NADPH group, n=2, and no NADPH group at 0 and 45 min, n=1), marked as 0, 5, 15, 30 and 45 min; […]
The slope was calculated based on the LN value of the compound concentration percentage and time as the coordinate axis, and the residual content of the compound after incubation with liver microsomes was calculated based on the slope and formula. […]
For orientation: Liver microsomes are a subcellular fraction often used to study metabolism.

Series [2] in a line: Pharmacokinetic evaluation in mice. The conditions noted are these: mouse, plasma, ICR male mice. The class given is in vivo. Here is the method: Purpose: ICR male mice were selected as test animals. The LC-MS/MS method was used to quantitatively determine the drug concentration in the plasma of mice at different time points after intravenous injection or oral administration of the test compound to evaluate the pharmacokinetic characteristics of the test drug in mice.
Experimental materials: ICR mice (male, 15-35g, 5-10 weeks old, Shanghai Xipu-Bikai Experimental Animal Co., Ltd.)
The clear solution of the test compound was injected into ICR mice via the tail vein (without fasting, vehicle: 5% DMSO/10% Solutol/85% Saline) and administered to ICR mice by gavage (fasting for 10-14h). For intravenous administration, blood was collected from the submandibular venous plexus at 0.033, 0.083, 0.25, 0.5, 1, 2, 4, 8, and 24 hrs after administration, placed in an EDTA-K2 anticoagulant tube (Jiangsu Kangjian Medical Supplies Co., Ltd.), mixed, and centrifuged at 2-8° C., 6800 g for 6 minutes to obtain plasma; for oral gavage administration, blood was collected from the submandibular venous plexus at 0.083, 0.25, 0.5, 1, 2, 4, 6, 8, and 24 hrs after administration, placed in an EDTA-K2 anticoagulant tube (Jiangsu Kangjian Medical Supplies Co., Ltd.), mixed, and centrifuged at 2-8° C., 6800 g for 6 minutes to obtain plasma. The blood drug concentration was determined by LC-MS/MS, and the pharmacokinetic software Phoenix WinNonlinTM Version 7.0 (Pharsight, USA) was used to calculate the relevant pharmacokinetic parameters by the non-compartmental linear logarithmic trapezoidal method. The compounds of the present disclosure have good pharmacokinetic characteristics in mice, and the test results of representative compounds are shown in Table 8.

Series [3] in a line: Pharmacokinetic evaluation in rats. The class given is in vivo. The conditions noted are these: rat, plasma, SD male rats. The protocol:
Purpose: The test animals were SD male rats. The LC-MS/MS method was used to quantitatively determine the drug concentration in the plasma of rats at different time points after intravenous injection or oral administration of the test compound to evaluate the pharmacokinetic characteristics of the test drug in rats.
SD rats (male, 160-300 g, 5-10 weeks old, Shanghai Xipu-Bikai Experimental Animal Co., Ltd.)
The clear solution of the test compound was injected into SD rats via the tail vein (without fasting) (vehicle: 5% DMSO/10% Solutol/85% Saline), and the clear solution of the test compound was administered to SD rats by gavage (fasting for 10-14 h, free access to water) (vehicle: 5% DMSO/10% Solutol/85% Saline). For intravenous administration, blood was collected from the jugular vein at 0.033, 0.083, 0.25, 0.5, 1, 2, 4, 8, and 24 hrs after administration, placed in an EDTA-K2 anticoagulant tube (Jiangsu Kangjian Medical Supplies Co., Ltd.), mixed, and centrifuged at 2-8° C., 6800 g for 6 minutes to obtain plasma; for oral gavage administration, blood was collected from the jugular vein at 0.083, 0.25, 0.5, 1, 2, 4, 6, 8, and 24 hrs after administration, placed in an EDTA-K2 anticoagulant tube (Jiangsu Kangjian Medical Supplies Co., Ltd.), mixed, and centrifuged at 2-8° C., 6800 g for 6 minutes to obtain plasma. The plasma concentration was determined by LC-MS/MS, and the relevant pharmacokinetic parameters were calculated by the non-compartmental linear logarithmic trapezoidal method using Phoenix WinNonlinTM Version 7.0 (Pharsight, USA) pharmacokinetic software. The compounds of the present disclosure have good pharmacokinetic characteristics in rats.

[4] abbreviates: 1 mg/kg, Dosage IV/PO 1/3 mg/kg.
[5] abbreviates: 1 mg/kg, Dosage IV/PO 1/3 mg/kg, read-out: Vdss.
Setting [6] is: IV 1 mg/kg, read-out: AUC0-last IV.
[7] abbreviates: IV 1 mg/kg, read-out: T1/2 (IV, h) (converted).
[8] abbreviates: PO 3 mg/kg, read-out: AUC0-last PO.

Broadly, the Cmax is the peak of the concentration-time curve. With `CC(=O)N1CCOC[C@H]1CNc1nc2nc(-c3c(C)cc(C(F)(F)F)cc3O)ccc2o1` [Compound 111], in series [1], the “LMS (r)(% rem, 45 min)” value turned out to be 82.45 % rem. Moreover, the results for the clearance in series [2] (setting [4]) and in series [3] (setting [4]) were 19.2 mL/min/kg and 5.78 mL/min/kg, respectively. Moreover, the Vd in series [2] (setting [5]) was 1.93 L/kg; in series [3] (setting [5]) it was 1.02 L/kg. The highest concentration (Cmax) amounted to 1550 ng/mL in series [2] (Dosage IV/PO 1/3 mg/kg) and 1390 ng/mL in series [3] (Dosage IV/PO 1/3 mg/kg). Moreover, the results for the bioavailability in series [2] (Dosage IV/PO 1/3 mg/kg) and in series [3] (Dosage IV/PO 1/3 mg/kg) were 137% and 94%, respectively. Moreover, the AUC(0-t) in series [2] (setting [6]) amounted to 834 ng·h/mL; in series [2] (setting [8]), 3440 ng·h/mL; in series [3] (setting [6]), 2880 ng·h/mL; in series [3] (setting [8]) it was 8120 ng·h/mL. The half-life was 2.12 h in series [2] (setting [7]) and 3.36 h in series [3] (setting [7]).
